Reference: article PMC6683142, “The lipid-dependent structure and function of LacY can be recapitulated and analyzed in phospholipid-containing detergent micelles” (Scientific Reports, 2019)

Biological target: T1, lactose permease (LacY) (Escherichia coli, UniProt P02920, C154G)
T1 construct: LacY with all six native Trp residues and a C-terminal His6-Tag, DDM-solubilized, purified from PE-containing cells (correct topology)
T1 sequence (P02920 1-417 C154G): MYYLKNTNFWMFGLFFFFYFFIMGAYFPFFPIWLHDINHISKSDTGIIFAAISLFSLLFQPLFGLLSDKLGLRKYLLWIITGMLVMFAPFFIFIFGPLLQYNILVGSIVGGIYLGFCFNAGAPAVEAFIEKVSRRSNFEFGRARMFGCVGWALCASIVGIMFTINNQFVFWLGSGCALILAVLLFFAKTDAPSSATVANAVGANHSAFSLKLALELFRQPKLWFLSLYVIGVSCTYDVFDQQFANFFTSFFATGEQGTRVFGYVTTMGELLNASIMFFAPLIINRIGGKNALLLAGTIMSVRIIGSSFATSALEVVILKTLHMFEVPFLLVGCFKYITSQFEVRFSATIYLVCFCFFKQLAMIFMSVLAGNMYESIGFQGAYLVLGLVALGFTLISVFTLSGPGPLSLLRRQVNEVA
Experiment: Trp → α-NPG FRET (quenching of W151) on purified protein in DDM micelles
Format: binding

## O=[N+]([O-])c1ccc(O[C@H]2O[C@H](CO)[C@H](O)[C@H](O)[C@H]2O)cc1 [α-NPG]
  Kd: 5.9 µM
